Test results taken from patent publication US8551978B2 (Theravance, Inc., priority 2009, dated 2013).
pEC50, pKi: −log10 of the molar value. Counter-ions that a name gives are not always drawn. Like-named read-outs stand apart in the source and are kept apart here.

What was measured:
[1] = system: MCh-induced bronchoconstriction; experiment: Einthoven assay: bronchoprotection against methacholine (MCh)-induced bronchoconstriction; format: in vivo, rat; details: rat, 100 μg by inhalation, 24 h after administration
Protocol: This assay measures the ability of a test compound to provide bronchoprotection against methacholine (MCh)-induced bronchoconstriction in a rat. Male Sprague-Dawley rats (Harlan, Indianapolis, Ind.), weighing between 200 g and 350 g, were used for all studies. Test compound or vehicle (sterile deionized water) were dosed by inhalation (1H) over a 10 min period in a pie shaped inhalation chamber (R+S Molds, San Carlos, Calif.) using 5 mL of dosing solution. […] Rats were dosed with 100 μg of test compound unless otherwise indicated. At predetermined time points, rats were anesthetized with an intraperitoneal (IP) injection of 120 mg/kg inactin (thiobutabarbital). A supplemental dose (40 mg/kg, IP) was administered if the animal responded to physical stimuli (e.g. toe pinch). The surgical site was shaved and a 1-2 cm midline incision of the ventral aspect of the neck was made. The jugular vein was isolated and cannulated with a saline-filled polyethylene catheter (PE-50) to allow IV infusion of MCh. Trachea was dissected free and cannulated with a 14G needle (#NE-014, Small Parts, Miami Lakes, Fla.). After placement of the tracheal cannula, each rat was ventilated using a respirator (Model 683, Harvard Apparatus, Inc., MA) set at a stroke volume of 1 mL/100 g body weight (but not exceeding 2.5 mL volume) and a rate of 90 strokes per minute. A T-connector was placed along the respirator expiratory tubing to allow for measurement of changes in ventilation pressure (VP) using a Biopac transducer that was connected to a Biopac […]) pre-amplifier. Body temperature was maintained at 37° C. using a heating pad. Changes in VP were recorded using the Acknowledge Data Collection Software (Santa Barbara, Calif.). Baseline values were collected for at least 2.5 min. Rats were then challenged with non-cumulative intravenous (IV) infusions of 40 and 80 μg/kg MCh. MCh was infused intravenously for 2.5 minutes from a syringe pump (sp210iw, World Precision Instruments, Inc., Sarasota, Fla.) at a rate of 2 mL/kg/min, with a 2 minute interval between the two doses of MCh. Changes in ventilation pressure (cm H2O) in treated animals are expressed as % inhibition of MCh response relative to control animals. Other bronchoconstrictors, such as histamine and acetylcholine, can be used in place of MCh in this assay. Additionally, guinea pigs can be used instead of rats. […] Inhibition greater than or equal to 30 percent at 24 h is indicative of a long duration of action.

hM3 muscarinic receptor = hM3 muscarinic receptor (Homo sapiens (Human), UniProt P20309); experiment: Radioligand binding assay for muscarinic receptors ([3H]-NMS displacement, CHO cell membranes)
Chain of hM3 muscarinic receptor (P20309 whole entry): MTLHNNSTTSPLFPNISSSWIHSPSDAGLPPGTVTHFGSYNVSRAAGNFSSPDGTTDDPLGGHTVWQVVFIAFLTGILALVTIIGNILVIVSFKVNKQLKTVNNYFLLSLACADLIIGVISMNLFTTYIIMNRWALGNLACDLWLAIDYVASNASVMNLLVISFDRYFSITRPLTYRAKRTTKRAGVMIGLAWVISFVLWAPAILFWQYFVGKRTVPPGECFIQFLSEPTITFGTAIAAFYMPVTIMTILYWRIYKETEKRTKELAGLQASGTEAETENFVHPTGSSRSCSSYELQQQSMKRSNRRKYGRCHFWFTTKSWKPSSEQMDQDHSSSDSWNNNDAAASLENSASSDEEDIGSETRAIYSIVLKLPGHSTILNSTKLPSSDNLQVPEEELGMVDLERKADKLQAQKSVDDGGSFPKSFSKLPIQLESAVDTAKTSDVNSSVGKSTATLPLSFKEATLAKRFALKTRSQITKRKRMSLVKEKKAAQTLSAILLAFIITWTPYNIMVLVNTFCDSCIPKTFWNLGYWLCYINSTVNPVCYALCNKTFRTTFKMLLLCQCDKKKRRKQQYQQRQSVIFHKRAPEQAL
Protocol: The cells were grown in a 5% CO2, 37° C. incubator and lifted with 2 mM EDTA in dPBS. Cells were collected by 5 minute centrifugation at 650×g, and cell pellets were either stored frozen at −80° C. or membranes were prepared immediately for use. For membrane preparation, cell pellets were resuspended in lysis buffer and homogenized with a Polytron PT-2100 tissue disrupter (Kinematica AG; 20 seconds×2 bursts). Crude membranes were centrifuged at 40,000×g for 15 minutes at 4° C. The membrane pellet was then resuspended with re-suspension buffer and homogenized again with the Polytron tissue disrupter. The protein concentration of the membrane suspension was determined by the method described in Lowry et al., 1951, […], 193, 265. All membranes were stored frozen in aliquots at −80° C. or used immediately. […] The membranes were briefly homogenized using a Polytron tissue disruptor (10 seconds) prior to assay plate addition. […] The test compounds were initially dissolved to a concentration of 400 μM in dilution buffer and then serially diluted 5× with dilution buffer to final concentrations ranging from 10 μM to […]. The order of addition and volumes added to the assay plates were as follows: 25 μL radioligand, 25 μL diluted test compound, and 50 μL membranes. Assay plates were incubated for 6 hours at 37° C. […] Filter plates were rinsed three times with wash buffer (10 mM HEPES) to remove unbound radioactivity. The plates were then air-dried and 50 μL Microscint-20 liquid scintillation fluid (PerkinElmer, Inc.) were added to each well. The plates were then counted in a PerkinElmer Topcount liquid scintillation counter (PerkinElmer, Inc.). Binding data were analyzed by nonlinear regression analysis with the GraphPad Prism Software package (GraphPad Software, Inc., San Diego, Calif.) using the one-site competition model. […] These summary statistics were then converted back to K; values for data reporting.

hβ2 adrenergic receptor = hβ2 adrenergic receptor (Homo sapiens (Human), UniProt P07550); experiment: Assay for determining adrenergic receptor agonist potency (cAMP Flashplate, HEK-293 cells); format: cell-based; details: data rounded to nearest 1 nM
Chain of hβ2 adrenergic receptor (P07550 whole entry): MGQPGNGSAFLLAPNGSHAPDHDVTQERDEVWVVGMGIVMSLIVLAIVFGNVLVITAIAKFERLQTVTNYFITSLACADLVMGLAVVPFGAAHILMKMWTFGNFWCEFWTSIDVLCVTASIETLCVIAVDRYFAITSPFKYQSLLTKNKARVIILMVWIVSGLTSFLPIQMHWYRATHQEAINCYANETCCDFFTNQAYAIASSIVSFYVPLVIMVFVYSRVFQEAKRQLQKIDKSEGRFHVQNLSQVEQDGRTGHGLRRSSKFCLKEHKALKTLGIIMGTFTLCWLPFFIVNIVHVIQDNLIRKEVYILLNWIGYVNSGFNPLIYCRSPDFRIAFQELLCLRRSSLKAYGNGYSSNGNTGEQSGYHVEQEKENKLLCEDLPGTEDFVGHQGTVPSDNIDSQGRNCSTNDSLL
Protocol: The cell monolayer was lifted with 2 mM EDTA in PBS. Cells were pelleted by centrifugation at 1,000 rpm, and cell pellets were either stored frozen at −80° C. or membranes were prepared immediately for use. cAMP assays were performed in a radioimmunoassay format using the Flashplate Adenylyl Cyclase Activation Assay System with [^125I]-cAMP (NEN SMP004, PerkinElmer Life Sciences Inc., Boston, Mass.), according to the manufacturers instructions. […] Cells were rinsed with PBS and detached in dPBS (Dulbecco's Phosphate Buffered Saline, without CaCl2 and MgCl2) containing 2 mM EDTA or Trypsin-EDTA solution (0.05% trypsin/0.53 mM EDTA). After counting cells in Coulter cell counter, cells were pelleted by centrifugation at 1,000 rpm and re-suspended in stimulation buffer containing TBMX (PerkinElmer Kit) pre-warmed to room temperature to a concentration of 1.6×10^6 to 2.8×10^6 cells/mL. About 40,000 to 80,000 cells per well were used in this assay. […] Reactions were incubated for 10 min at 37° C. and stopped by adding 100 μL of cold detection buffer containing [^125I]-cAMP (NEN SMP004, PerkinElmer Life Sciences, Boston, Mass.). […] Data were analyzed by nonlinear regression analysis with the GraphPad Prism Software package (GraphPad Software, Inc., San Diego, Calif.) with the sigmoidal equation. The Cheng-Prusoff equation (Cheng Y, and Prusoff W H., Biochemical Pharmacology, 1973, 22, 23, 3099-108) was used to calculate the EC50 values.

[2] = hM3 Muscarinic Receptor Binding, data rounded to nearest 0.1 nM

Q: With C[C@@H](Cc1cccc(CCNC(=O)Cc2ccc(N(C)C(=O)CCN3CCC(OC(=O)Nc4ccccc4-c4ccccc4)CC3)cc2)c1)NC[C@H](O)c1ccc(O)c2[nH]c(=O)ccc12 [Compound I-87] as the molecule, how does the “Broncho. at 24 h” value [1] read?
A: Yes (Bronchoprotective effect present at 24 h, e.g., ≧30% inhibition of the MCh response at 24 h in the rat Einthoven assay (100 μg))

Q: CN(C(=O)CCN1CCC(OC(=O)Nc2ccccc2-c2ccccc2)CC1)c1cccc(CC(=O)Nc2ccc(CCNC[C@H](O)c3ccc(O)c4[nH]c(=O)ccc34)cc2)c1 [Compound I-63] was tested. Which pKi (hM3 muscarinic receptor) did it give?
A: 10.00

Q: What about the pEC50 (hβ2 adrenergic receptor) of the same molecule?
A: 9.00

Q: What does the source list for C[C@H](Cc1ccc(CCNC(=O)Cc2ccc(N(C)C(=O)CCN3CCC(OC(=O)Nc4ccccc4-c4ccccc4)CC3)cc2)cc1)NC[C@H](O)c1ccc(O)c2[nH]c(=O)ccc12 [Compound I-90]?
A: pKi (hM3 muscarinic receptor): 10.00; pEC50 (hβ2 adrenergic receptor): 9.00

Q: How did the pKi (hM3 muscarinic receptor) turn out when CN(C(=O)CCN1CCC(OC(=O)Nc2ccccc2-c2ccccc2)CC1)c1cccc(CC(=O)Nc2ccc(CNC[C@H](O)c3ccc(O)c4[nH]c(=O)ccc34)cc2)c1 [Compound I-59] was run?
A: 10.00

Q: What about the pEC50 (hβ2 adrenergic receptor) of the same molecule?
A: 8.52

Q: Cc1ccc(C(=O)NCc2ccc(CC(C)NC[C@H](O)c3ccc(O)c4[nH]c(=O)ccc34)cc2)cc1N(C)C(=O)CCN1CCC(OC(=O)Nc2ccccc2-c2ccccc2)CC1 (stereo partly drawn) [Compound I-47] was tested. Which pKi (hM3 muscarinic receptor; [2]) did it give?
A: 9.70

Q: And the pEC50 (hβ2 adrenergic receptor)?
A: 8.52

Q: How did the pKi (hM3 muscarinic receptor) turn out when C[C@@H](Cc1cccc(CCC(=O)NCc2ccc(N(C)C(=O)CCN3CCC(OC(=O)Nc4ccccc4-c4ccccc4)CC3)cc2)c1)NC[C@H](O)c1ccc(O)c2[nH]c(=O)ccc12 [Compound I-93] was run?
A: 9.10

Q: And the pEC50 (hβ2 adrenergic receptor)?
A: 7.96

Q: For C[C@H](Cc1ccc(NC(=O)c2cccc(N(C)C(=O)CCN3CCC(OC(=O)Nc4ccccc4-c4ccccc4)CC3)c2)cc1)NC[C@H](O)c1ccc(O)c2[nH]c(=O)ccc12 [Compound I-42], which “Broncho. at 24 h” value [1] is on record?
A: No

Q: With CN(C(=O)CCN1CCC(OC(=O)Nc2ccccc2-c2ccccc2)CC1)c1cccc(CC(=O)Nc2cccc(CCNC[C@H](O)c3ccc(O)c4[nH]c(=O)ccc34)c2)c1 [Compound I-62] as the molecule, how does the inhibition in vivo at 0.1 mg ([1]; inhaled or nasal, read-out: Broncho. at 24 h) read?
A: > 30%

Q: What does the source list for C[C@H](Cc1ccc(CCNC(=O)c2ccc(N(C)C(=O)CCN3CCC(OC(=O)Nc4ccccc4-c4ccccc4)CC3)cc2)cc1)NC[C@H](O)c1ccc(O)c2[nH]c(=O)ccc12 [Compound I-57]?
A: pKi (hM3 muscarinic receptor): 10.00; pEC50 (hβ2 adrenergic receptor): 9.00

Q: With CN(C(=O)CCN1CCC(OC(=O)Nc2ccccc2-c2ccccc2)CC1)c1ccc(CNC(=O)Cc2cccc(CCNC[C@H](O)c3ccc(O)c4[nH]c(=O)ccc34)c2)cc1 [Compound I-76] as the molecule, how does the pKi (hM3 muscarinic receptor; [2]) read?
A: 9.52

Q: And the pEC50 (hβ2 adrenergic receptor)?
A: 9.00

Q: COc1ccc(CNC(=O)Cc2ccc(N(C)C(=O)CCN3CCC(OC(=O)Nc4ccccc4-c4ccccc4)CC3)cc2)cc1CC(C)NC[C@H](O)c1ccc(O)c2[nH]c(=O)ccc12 (stereo partly drawn) [Compound I-72] was tested. Which pKi (hM3 muscarinic receptor; [2]) did it give?
A: 9.40

Q: What about the pEC50 (hβ2 adrenergic receptor) of the same molecule?
A: 8.40

Q: How did the pKi (hM3 muscarinic receptor) turn out when COc1ccc(NC(=O)CCCN(C)C(=O)CCN2CCC(OC(=O)Nc3ccccc3-c3ccccc3)CC2)cc1CCNC[C@H](O)c1ccc(O)c2[nH]c(=O)ccc12 [Compound I-9] was run?
A: 10.00

Q: And the pEC50 (hβ2 adrenergic receptor)?
A: 8.22

Q: How did the pKi (hM3 muscarinic receptor; [2]) turn out when COc1ccc(CC(=O)Nc2cccc(N(C)C(=O)CCN3CCC(OC(=O)Nc4ccccc4-c4ccccc4)CC3)c2)cc1CC(C)NC[C@H](O)c1ccc(O)c2[nH]c(=O)ccc12 (stereo partly drawn) [Compound I-54] was run?
A: 9.70

Q: What about the pEC50 (hβ2 adrenergic receptor) of the same molecule?
A: 8.70

Q: What does the source list for C[C@@H](Cc1ccc(CCNC(=O)c2ccc(N(C)C(=O)CCN3CCC(OC(=O)Nc4ccccc4-c4ccccc4)CC3)cc2)cc1)NC[C@H](O)c1ccc(O)c2[nH]c(=O)ccc12 [Compound I-58]?
A: pKi (hM3 muscarinic receptor): 9.70; pEC50 (hβ2 adrenergic receptor): 9.00

Q: What does the source list for CN(C(=O)CCN1CCC(OC(=O)Nc2ccccc2-c2ccccc2)CC1)c1cccc(C(=O)Nc2ccc(CNC[C@H](O)c3ccc(O)c4[nH]c(=O)ccc34)cc2)c1 [Compound I-25, Ditrifluoroacetic Acid]?
A: pKi (hM3 muscarinic receptor): 10.00; pEC50 (hβ2 adrenergic receptor): 9.00

Q: Cc1ccc(CNC(=O)Cc2ccc(N(C)C(=O)CCN3CCC(OC(=O)Nc4ccccc4-c4ccccc4)CC3)cc2)cc1CC(C)NC[C@H](O)c1ccc(O)c2[nH]c(=O)ccc12 (stereo partly drawn) [Compound I-70] was tested. Which pKi (hM3 muscarinic receptor; [2]) did it give?
A: 9.52

Q: What about the pEC50 (hβ2 adrenergic receptor) of the same molecule?
A: 9.00

Q: Cc1cc(NC(=O)Cc2cccc(N(C)C(=O)CCN3CCC(OC(=O)Nc4ccccc4-c4ccccc4)CC3)c2)c(C)cc1CNC[C@H](O)c1ccc(O)c2[nH]c(=O)ccc12 [Compound I-60] was tested. Which pKi (hM3 muscarinic receptor) did it give?
A: 10.00

Q: What about the pEC50 (hβ2 adrenergic receptor) of the same molecule?
A: 8.52

Q: How did the pKi (hM3 muscarinic receptor; [2]) turn out when CN(C(=O)CCN1CCC(OC(=O)Nc2ccccc2-c2ccccc2)CC1)c1ccc(CNC(=O)Cc2cccc(CNC[C@H](O)c3ccc(O)c4[nH]c(=O)ccc34)c2)cc1 [Compound I-74] was run?
A: 9.52

Q: And the pEC50 (hβ2 adrenergic receptor)?
A: 8.70

Q: How did the pEC50 (hβ2 adrenergic receptor) turn out when CN(C(=O)CCN1CCC(OC(=O)Nc2ccccc2-c2ccccc2)CC1)c1ccc(CNC(=O)CCc2cccc(CNC[C@H](O)c3ccc(O)c4[nH]c(=O)ccc34)c2)cc1 [Compound I-96] was run?
A: 8.52

Q: Which results are given for Cc1c(CNC(=O)Cc2ccc(N(C)C(=O)CCN3CCC(OC(=O)Nc4ccccc4-c4ccccc4)CC3)cc2)cccc1CC(C)NC[C@H](O)c1ccc(O)c2[nH]c(=O)ccc12 (stereo partly drawn) [Compound I-71]?
A: pKi (hM3 muscarinic receptor): 10.00; pEC50 (hβ2 adrenergic receptor): 9.00

Q: How did the pKi (hM3 muscarinic receptor; [2]) turn out when CN(CCCC(=O)Nc1ccc(CNC[C@H](O)c2ccc(O)c3[nH]c(=O)ccc23)cc1)C(=O)CCN1CCC(OC(=O)Nc2ccccc2-c2ccccc2)CC1 [Compound I-1, Biphenyl-2-ylcarbamic Acid 1-(2-{[3-(4-{[(R)-2-Hydroxy-2-(8-hydroxy-2-oxo-1,2-dihydroquinolin-5-yl)ethylamino]methyl}-phenylcarbamoyl)propyl]methylcarbamoyl}ethyl)piperidin-4-yl Ester Ditrifluoroacetic Acid Salt] was run?
A: 10.00

Q: And the pEC50 (hβ2 adrenergic receptor)?
A: 8.52

Q: CN(C(=O)CCN1CCC(OC(=O)Nc2ccccc2-c2ccccc2)CC1)c1ccc(CNC(=O)Cc2ccc(CNC[C@H](O)c3ccc(O)c4[nH]c(=O)ccc34)cc2)cc1 [Compound I-75] was tested. Which pKi (hM3 muscarinic receptor) did it give?
A: 9.70

Q: And the pEC50 (hβ2 adrenergic receptor)?
A: 8.70

Q: How did the pKi (hM3 muscarinic receptor; [2]) turn out when CC(Cc1cc(CC(=O)NCc2ccc(N(C)C(=O)CCN3CCC(OC(=O)Nc4ccccc4-c4ccccc4)CC3)cc2)ccc1F)NC[C@H](O)c1ccc(O)c2[nH]c(=O)ccc12 (stereo partly drawn) [Compound I-84] was run?
A: 10.00

Q: And the pEC50 (hβ2 adrenergic receptor)?
A: 9.00
